Drawing on patent US20240417486A1, “ASYMMETRIC BIS-BENZIMIDAZOLE STING AGONIST IMMUNOCONJUGATES AND USES THEREOF” (BOLT BIOTHERAPEUTICS, INC., priority 2021, published 2024), this text covers IC50 for seven compounds.

One may read the IC50 as the midpoint of a concentration-inhibition curve.

The assay addresses human STING WT (6His-tagged STING protein) (Homo sapiens (Human), UniProt Q86WV6). Put plainly: HTRF binding assay (STING binding assay). Conditions: inhibition of d2-labeled 2',3'-cGAMP binding to 6His-tagged STING. On the procedure: Example 202 HTRF Binding Assay
Asymmetric bis-benzimidazole compounds (BBI) of the invention were assessed in a biochemical homogeneous time resolved fluorescence (HTRF) binding assay adapted from the human STING WT binding assay (“HTRF, A guide to Homogeneous Time Resolved Fluorescence”, (2021) PerkinElmer Cisbio; Mathis, G. Clinical Chemistry, 41(9):1391-1397). Briefly, 6His-tagged STING protein was incubated with terbium cryptate-labeled anti-6His antibody, d2-labeled 2′,3′-cGAMP, and varying concentrations of test articles in a 384-well plate format. Donor and acceptor emission signals were measured for each well by plate reader at […], respectively, and the ratio of the signals used to calculate percent inhibition of d2-labeled 2′,3′-cGAMP, cyclic dinucleotide binding.
A general note: In TR-FRET formats the signal depends on donor and acceptor labels being close together.

Chain of human STING WT (6His-tagged STING protein) (Q86WV6 whole entry): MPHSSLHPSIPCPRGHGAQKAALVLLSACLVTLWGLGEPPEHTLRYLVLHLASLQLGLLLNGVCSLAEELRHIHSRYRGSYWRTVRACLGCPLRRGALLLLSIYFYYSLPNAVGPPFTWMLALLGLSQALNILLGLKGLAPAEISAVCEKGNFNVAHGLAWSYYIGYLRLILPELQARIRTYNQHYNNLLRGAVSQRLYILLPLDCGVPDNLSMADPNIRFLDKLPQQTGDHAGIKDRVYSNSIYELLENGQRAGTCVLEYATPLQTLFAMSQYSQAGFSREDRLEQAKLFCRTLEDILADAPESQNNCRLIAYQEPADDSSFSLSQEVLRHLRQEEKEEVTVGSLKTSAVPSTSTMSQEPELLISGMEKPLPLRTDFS

Consider `CCn1nc(C)cc1C(=O)Nc1nc2cc(C(N)=O)cc(OCCCn3c(NC(=O)c4cc(C)nn4CC)nc4cc(C(N)=O)cc(OC)c43)c2n1C` [BBI-1, 1-(3-((5-carbamoyl-2-(1-ethyl-3-methyl-1H-pyrazole-5-carboxamido)-1-methyl-1H-benzo[d]imidazol-7-yl)oxy)propyl)-2-(1-ethyl-3-methyl-1H-pyrazole-5-carboxamido)-7-methoxy-1H-benzo[d]imidazole-5-carboxamide], for which the IC50 came out at 0.057 µM.

Compound `CCn1nc(C)cc1C(=O)Nc1nc2cc(C(N)=O)cc(OCCCCn3c(NC(=O)c4cc(C)nn4CC)nc4cc(C(N)=O)cc(OC)c43)c2n1C` [BBI-2, 1-[4-[6-carbamoyl-2-[(2-ethyl-5-methyl-pyrazole-3-carbonyl)amino]-3-methyl-benzimidazol-4-yl]oxybutyl]-2-[(2-ethyl-5-methyl-pyrazole-3-carbonyl)amino]-7-methoxy-benzimidazole-5-carboxamide] displayed a half-inhibitory concentration (IC50) of 0.073 µM.

Compound `CCn1nc(C)cc1C(=O)Nc1nc2cc(C(N)=O)cc(OCCCCn3c(NC(=O)c4cc(C)nn4CC)nc4cc(C(N)=O)cc(OCCCN5CCNCC5)c43)c2n1C` [BBI-3, 1-(4-((5-carbamoyl-2-(1-ethyl-3-methyl-1H-pyrazole-5-carboxamido)-1-methyl-1H-benzo[d]imidazol-7-yl)oxy)butyl)-2-(1-ethyl-3-methyl-1H-pyrazole-5-carboxamido)-7-(3-(piperazin-1-yl)propoxy)-1H-benzo[d]imidazole-5-carboxamide] came in with an IC50 of 0.25 µM.

In the case of `CCn1nc(C)cc1C(=O)Nc1nc2cc(C(N)=O)cc(OCCCn3c(NC(=O)c4cc(C)nn4CC)nc4cc(C(N)=O)ccc43)c2n1C` [BBI-4], the IC50 was 0.44 µM.

`CCn1nc(C)cc1C(=O)Nc1nc2cc(C(N)=O)cc(OCCn3c(NC(=O)c4cc(C)nn4CC)nc4cc(C(N)=O)cc(OC)c43)c2n1C` [BBI-5] displayed an IC50 of 0.21 µM. This IC50 is about 2.1-fold lower than that of the compound before.

`CCn1nc(C)cc1C(=O)Nc1nc2cc(C(N)=O)cc(OCCCn3c(NC(=O)c4cc(C)nn4CC)nc4cc(C(N)=O)cc(OCCCN5CCNCC5)c43)c2n1C` [BBI-6] had a half-inhibitory concentration (IC50) of 0.051 µM.

With `CCn1nc(C)cc1C(=O)Nc1nc2cc(C(N)=O)cc(OC/C=C/Cn3c(NC(=O)c4cc(C)nn4CC)nc4cc(C(N)=O)cc(OCCCN5CCNCC5)c43)c2n1C` [BBI-7], the half-inhibitory concentration (IC50) was 0.15 µM.
